In ChEMBL document CHEMBL1201862, “PubChem BioAssay data set” (2004):
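Growth conditions: 96-well plates. Treatment: test compound, 48 hours, 5 concentrations. Analysis: linear interpolation between bracketing concentrations; unreached endpoints set to highest concentration. GI50 = concentration required for 50% inhibition of growth.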 Activity calls are given as the source filed them. No stated cut-off is given here; in the data, active = GI50 up to about 1.1 µM and inactive = higher.

Assays:
Test in all cases: inhibition of tumour cell growth, NCI panel, 48 h
Hs-578T = system: Hs-578T
OVCAR-5 = system: OVCAR-5
NCI-H226 = system: NCI-H226
SR = system: SR
SF-295 = system: SF-295
LOX IMVI = system: LOX IMVI
Malme-3M = system: Malme-3M
MDA-MB-231 = system: MDA-MB-231
HT-29 = system: HT-29
HOP-62 = system: HOP-62
OVCAR-3 = system: OVCAR-3
MCF7 = system: MCF7
UACC-62 = system: UACC-62
UACC-257 = system: UACC-257
HCT-15 = system: HCT-15
M14 = system: M14
UO-31 = system: UO-31
NCI-H460 = system: NCI-H460
OVCAR-8 = system: OVCAR-8
EKVX = system: EKVX
T47D = system: T47D
SNB-75 = system: SNB-75
COLO 205 = system: COLO 205
HOP-92 = system: HOP-92
OVCAR-4 = system: OVCAR-4
SNB-19 = system: SNB-19
SN12C = system: SN12C
IGROV-1 = system: IGROV-1
SK-OV-3 = system: SK-OV-3
NCI-H522 = system: NCI-H522
NCI/ADR-RES = system: NCI/ADR-RES
A549 = system: A549
MOLT-4 = system: MOLT-4
BT-549 = system: BT-549
PC-3 = system: PC-3
SF-268 = system: SF-268
SK-MEL-2 = system: SK-MEL-2
SW-620 = system: SW-620
ACHN = system: ACHN
SK-MEL-5 = system: SK-MEL-5
MDA-MB-435 = system: MDA-MB-435
DU-145 = system: DU-145
SF-539 = system: SF-539
CCRF-CEM = system: CCRF-CEM
HL-60 = system: HL-60
786-0 = system: 786-0
K562 = system: K562
HCC 2998 = system: HCC 2998
KM12 = system: KM12
NCI-H23 = system: NCI-H23
CAKI-1 = system: CAKI-1
TK-10 = system: TK-10
U-251 = system: U-251
A498 = system: A498
HCT-116 = system: HCT-116
MDA-N = system: MDA-N
RPMI-8226 = system: RPMI-8226
RXF 393 = system: RXF 393
SK-MEL-28 = system: SK-MEL-28

O=S(=O)(O)Oc1cc2c(c(OS(=O)(=O)O)c1)C[C@H](OS(=O)(=O)O)[C@@H](c1ccc(OS(=O)(=O)O)c(OS(=O)(=O)O)c1)O2
GI50 (Hs-578T): > 100 µM (inactive) | GI50 (OVCAR-5): > 100 µM (inactive) | GI50 (NCI-H226): > 100 µM (inactive) | GI50 (SR): > 100 µM (inactive) | GI50 (SF-295): > 100 µM (inactive) | GI50 (LOX IMVI): > 100 µM (inactive) | GI50 (Malme-3M): > 100 µM (inactive) | GI50 (MDA-MB-231): 85.7 µM (inactive) | GI50 (HT-29): > 100 µM (inactive) | GI50 (HOP-62): > 100 µM (inactive) | GI50 (OVCAR-3): > 100 µM (inactive) | GI50 (MCF7): > 100 µM (inactive) | GI50 (UACC-62): > 100 µM (inactive) | GI50 (UACC-257): > 100 µM (inactive) | GI50 (HCT-15): > 100 µM | GI50 (M14): > 100 µM (inactive) | GI50 (UO-31): > 100 µM (inactive) | GI50 (NCI-H460): > 100 µM (inactive) | GI50 (OVCAR-8): > 100 µM (inactive) | GI50 (EKVX): > 100 µM (inactive) | GI50 (T47D): > 100 µM (inactive) | GI50 (SNB-75): 43.6 µM (inactive) | GI50 (COLO 205): > 100 µM (inactive) | GI50 (HOP-92): > 100 µM (inactive) | GI50 (OVCAR-4): > 100 µM (inactive) | GI50 (SNB-19): > 100 µM (inactive) | GI50 (SN12C): > 100 µM (inactive) | GI50 (IGROV-1): > 100 µM (inactive) | GI50 (SK-OV-3): > 100 µM (inactive) | GI50 (NCI-H522): > 100 µM (inactive) | GI50 (NCI/ADR-RES): > 100 µM (inactive) | GI50 (A549): > 100 µM (inactive) | GI50 (MOLT-4): > 100 µM (inactive) | GI50 (BT-549): > 100 µM (inactive) | GI50 (PC-3): > 100 µM (inactive) | GI50 (SF-268): > 100 µM (inactive) | GI50 (SK-MEL-2): > 100 µM (inactive) | GI50 (SW-620): > 100 µM (inactive) | GI50 (ACHN): > 100 µM (inactive) | GI50 (SK-MEL-5): > 100 µM (inactive)

Cn1c2nc3ccccc3c-2cc2ccccc21 [NEOCRYPTOLEPINE]
GI50 (SR): 2.2 µM (inactive) | GI50 (SF-295): 4.59 µM (inactive) | GI50 (LOX IMVI): 3.27 µM (inactive) | GI50 (MDA-MB-435): 4.2 µM (inactive) | GI50 (HT-29): 2.51 µM (inactive) | GI50 (OVCAR-3): 5.18 µM (inactive) | GI50 (MCF7): 2.74 µM (inactive) | GI50 (DU-145): 6.82 µM (inactive) | GI50 (NCI-H460): 2.38 µM (inactive) | GI50 (SF-539): 3.05 µM (inactive) | GI50 (EKVX): 2.28 µM (inactive) | GI50 (T47D): 4.81 µM (inactive) | GI50 (CCRF-CEM): 3.15 µM (inactive) | GI50 (COLO 205): 2.93 µM (inactive) | GI50 (HL-60): 2.38 µM (inactive) | GI50 (IGROV-1): 2.7 µM (inactive) | GI50 (SK-OV-3): 6.47 µM (inactive) | GI50 (786-0): 3.84 µM (inactive) | GI50 (K562): 3.41 µM (inactive) | GI50 (BT-549): 3.19 µM (inactive) | GI50 (PC-3): 3.3 µM (inactive) | GI50 (SW-620): 3.68 µM (inactive) | GI50 (HCC 2998): 2.48 µM (inactive)

CS(=O)(=O)c1ccc(C2=C(c3ccccc3)C(=O)OC2)cc1 [ROFECOXIB]
GI50 (Hs-578T): > 100 µM (inactive) | GI50 (OVCAR-5): > 100 µM (inactive) | GI50 (NCI-H226): > 100 µM (inactive) | GI50 (KM12): > 100 µM (inactive) | GI50 (SR): > 100 µM (inactive) | GI50 (SF-295): > 100 µM (inactive) | GI50 (LOX IMVI): > 100 µM (inactive) | GI50 (Malme-3M): > 100 µM (inactive) | GI50 (MDA-MB-435): > 100 µM (inactive) | GI50 (MDA-MB-231): > 100 µM (inactive) | GI50 (HOP-62): > 100 µM (inactive) | GI50 (OVCAR-3): > 100 µM (inactive) | GI50 (NCI-H23): > 100 µM (inactive) | GI50 (MCF7): > 100 µM (inactive) | GI50 (CAKI-1): > 100 µM (inactive) | GI50 (TK-10): > 100 µM (inactive) | GI50 (UACC-62): > 100 µM (inactive) | GI50 (UACC-257): > 100 µM (inactive) | GI50 (U-251): > 100 µM (inactive) | GI50 (HCT-15): > 100 µM | GI50 (DU-145): > 100 µM (inactive) | GI50 (M14): > 100 µM (inactive) | GI50 (A498): > 100 µM (inactive) | GI50 (UO-31): > 100 µM (inactive) | GI50 (HCT-116): > 100 µM (inactive) | GI50 (NCI-H460): > 100 µM (inactive) | GI50 (OVCAR-8): > 100 µM (inactive) | GI50 (MDA-N): > 100 µM (inactive) | GI50 (SF-539): > 100 µM (inactive) | GI50 (EKVX): > 100 µM (inactive) | GI50 (T47D): > 100 µM (inactive) | GI50 (CCRF-CEM): > 100 µM (inactive) | GI50 (SNB-75): > 100 µM (inactive) | GI50 (COLO 205): > 100 µM (inactive) | GI50 (HOP-92): > 100 µM (inactive) | GI50 (OVCAR-4): > 100 µM (inactive) | GI50 (SNB-19): > 100 µM (inactive) | GI50 (SN12C): > 100 µM (inactive) | GI50 (HL-60): > 100 µM (inactive) | GI50 (IGROV-1): > 100 µM (inactive) | GI50 (SK-OV-3): > 100 µM (inactive) | GI50 (786-0): > 100 µM (inactive) | GI50 (K562): > 100 µM (inactive) | GI50 (NCI-H522): > 100 µM (inactive) | GI50 (NCI/ADR-RES): > 100 µM (inactive) | GI50 (RPMI-8226): > 100 µM (inactive) | GI50 (A549): > 100 µM (inactive) | GI50 (RXF 393): > 100 µM (inactive) | GI50 (MOLT-4): > 100 µM (inactive) | GI50 (PC-3): > 100 µM (inactive) | GI50 (SF-268): > 100 µM (inactive) | GI50 (SK-MEL-2): > 100 µM (inactive) | GI50 (SW-620): > 100 µM (inactive) | GI50 (ACHN): > 100 µM (inactive) | GI50 (SK-MEL-5): > 100 µM (inactive) | GI50 (HCC 2998): > 100 µM (inactive) | GI50 (SK-MEL-28): > 100 µM (inactive)
